Assays:
[1] = biological target: human Keap1 Kelch (Homo sapiens, UniProt Q14145); test: Fluorescence polarization (FP) competition assay with Cy5-Nrf2 peptide probe
Procedure: Fluorescence Polarization Assay
(3 nM) and human Keap1 Kelch at 14 nM in the 1×HBSTET assay buffer, as previously.[1, 3-5] In short, the assay was performed in black flat-bottom 384-well plates (Corning Life Sciences, NY) allowing an assay volume of 30 μL/well. Proper mixing and elimination of air bubbles was ascertained by spinning down the plates and incubation for 10–15 minutes at RT before measuring FP levels on a Safire2 plate-reader (Tecan, Männedorf, Switzerland). The Ki values of the compounds were determined by dose-response experiments (12-points, 4% DMSO in all wells), where FP values were fitted to the equation Y = Bottom + (Top - Bottom)/[1 + (10HillSlope*(LogIC50-X))]; X representing the logarithmic value of compound concentration. The resulting IC50 value, together with the Kd value (the dissociation constant between probe and Keap1 Kelch, determined in a prior experiment) and Keap1 Kelch concentrations, was used to calculate the theoretical competitive inhibition constant, the Ki value.[18]

[2] = tested on: NLRP3 inflammasome in macrophage-derived THP-1 cells; test: NLRP3 inflammasome / TLR4 activation in THP-1 macrophages (WB, ELISA); type: cell-based; details: 100 µM, 24 h
[3] = tested on: differentiated THP1 macrophages (WT)
[4] = tested on: cGAS-STING pathway in macrophage-derived THP-1 cells; test: cGAS-STING pathway in THP-1 macrophages (WB); type: cell-based; details: 100 µM, 24 h; cGAMP 4 µg/mL 6 h
[5] = tested on: NQO1 mRNA in BEAS-2B cells; test: qPCR-based BEAS-2B cell assay (NQO1 mRNA); parameters: species or system human; details: mean ± SEM, 2-4 independent experiments
Procedure: RT-qPCR were stimulated with compounds or DMSO diluted in DMEM and incubated for 24 h. DMSO was added accordingly to highest percentage compound volume added.
Upon 24 hour compound stimulation, the cells were trypsinized, washed, spun down and resuspended in 70 μL of ice-cold Pierce RIPA lysis buffer (Thermo Scientific) supplemented with 10 mM NaF, 1× complete protease cocktail inhibitor (Roche), and 5 IU mL-1 benzonase (Sigma), respectively. The protein concentrations were determined using the BCA protein assay kit (Thermo Scientific) and samples was equalized accordingly to the sample of lowest protein concentration. 1×XT sample buffer (Bio-Rad) and 1×XT reducing agent (Bio-Rad) were added to the samples, and lysates were denatured by boiling for 5 min at 95 °C. Denatured samples was separated by SDS-PAGE on a 4–20% Criterion TGX precast gradient gel (Bio-Rad). The gel ran initially for 20 min at 70 V and 45 min at 120 V and was then transferred onto a PVDF membrane (Bio-Rad) using a Trans-Blot Turbo transfer system. […]
Upon 5 hour compound stimulation, RNA was extracted from the cells using the High Pure RNA Isolation Kit (Roche, 11828665001) according to the manufacturer’s instructions. […] The quality and purity of the RNAs were assessed by Nanodrop spectrometry (DeNovix DS-11). Using the TaqMan detection systems, the gene expression of HO-1 (HMOX-1), NQO1, AKR1B10, and TRXR1 was determined by real-time PCR. […] The commercially available TaqMan assay (Thermo Fischer Scientific, cat. no. 4392938) was used, and samples were analyzed in a final volume of 10 μL reaction mix containing 5 μL of master mix, 0.2 μL of RT enzyme, 2.3 μL of nuclease-free water, […] (TATA-Box Binding Protein/TBP; […]
Hs00917067_m1, Thermo Fisher), and 2 μL of pure RNA. The samples were analyzed using a QuantStudioTM 3 real-time PCR instrument with the following program: 1 × (10 min, 48.0 °C; 10 min, 95.0 °C); 40 × (30 s, 95.0 °C; 1 min, 60.0 °C). […]
The upregulation of NQO1 mRNA in BEAS-2B cells was measured by qPCR, as previously described.[20] […]

[6] = tested on: Nrf2-regulated genes (AKR1B10, NQO1, TRXR1, HO-1) in HaCaT human keratinocytes; test: HaCaT cell assay, RT-qPCR of Nrf2-regulated genes; type: cell-based; details: WT HaCaT, 3, 1 and 0.33 µM, 5 h, normalized to TBP
[7] = tested on: IFN signalling in macrophage-derived THP-1 cells; test: Type I IFN signalling after IFNβ stimulation in THP-1 macrophages (WB); type: cell-based; details: 100 µM, 24 h; IFNβ 500 U/mL 1 h
[8] = tested on: Nrf2 KO THP1 cells differentiated into macrophages; test: RNA sequencing transcriptome analysis, Nrf2 KO THP-1 macrophages; type: cell-based; details: 12 h, CDDO-Me 0.1 µM, DMF, 24, 28 10 µM, KI-696 1 µM
[9] = tested on: Nrf2-regulated genes (AKR1B10, NQO1, TRXR1, HO-1) in HaCaT human keratinocytes; test: HaCaT cell assay, Western Blotting of Nrf2-regulated proteins; type: cell-based; details: 24 h
[10] = tested on: THP1 cells; type: cell-based; details: THP-1 WT, 10 and 100 µM, 48 h
Procedure: THP1 cells were exposed to the compounds for 48 hours at 10 and 100 μM. Viability was quantified using
propidium iodide exclusion through flow cytometry. PI-positive cells (dead or necrotic cells) were quantified
through red fluorescence on a BD C6 Accuri flow cytometer using a 488 nm excitation wavelength and an
emission filter of 585 nm ± 40 nm (BD Biosciences). 50,000 events were collected (n = 3 technical replicates
per condition). The experiment was repeated twice. Data are presented as mean ± SEM (n = 4‒10).

[11] = LPS or LPS+nigericin stimulation
[12] = WT, 12 h, CDDO-Me 0.1 µM, SFN, DMF, 24, 28 10 µM, KI-696 1 µM
[13] = WT, 12 h, CDDO-Me 0.1 µM, SFN, DMF, 24, 28 10 µM, KI-696 1 µM, NS = not significant

Chain of human Keap1 Kelch (Q14145 321-609): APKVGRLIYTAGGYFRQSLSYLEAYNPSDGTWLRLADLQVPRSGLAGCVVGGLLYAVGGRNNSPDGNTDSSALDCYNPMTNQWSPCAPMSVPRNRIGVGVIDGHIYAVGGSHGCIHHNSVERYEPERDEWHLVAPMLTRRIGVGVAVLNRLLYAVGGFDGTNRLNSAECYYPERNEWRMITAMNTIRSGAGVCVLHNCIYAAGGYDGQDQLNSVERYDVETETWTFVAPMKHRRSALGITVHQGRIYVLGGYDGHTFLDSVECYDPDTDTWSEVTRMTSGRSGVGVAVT

## Cc1cc2c(cc1C(CC(=O)O)c1ccc3ccc(OCC(=O)NC4CCCCCC4)cc3c1)OCCO2 (stereo not shown) [Compound 28]
[1]; Ki (FP), mean, ≥3 individual measurements, text and figures
  Ki: 8.8 nM
[1]; from FP Ki
  ligand efficiency (LE): 0.29
[2]
  NLRP3 inflammasome activation: release of cleaved caspase-1 and cleaved IL-1β in supernatants (WB): markedly decreased NLRP3 inflammasome activation
  cleavage of gasdermin D (GSDMD) (WB): prevented the cleavage of gasdermin D
[2]; LPS 100 ng/mL 3 h + nigericin 10 µM 1 h
  IL-1β release (ELISA) following NLRP3 activation: confirmed a decrease
[2]; LPS 2 µg/mL 6 h
  IL-1β release (ELISA) following high concentrations of LPS: no statistical difference was observed
[2]; [11]
  expression of NLRP3 (WB): markedly reduced
  total protein levels of pro-IL-1β (WB): also reduced
[3]; Table S3, THP-1, 12 h
  AKR1B10 FC: 4,27 fold
  CASP1 FC: 0,59 fold
  COL1A1 FC: 1,40 fold
  COL4A1 FC: 1,15 fold
  COL4A2 FC: 1,11 fold
  CYP1B1 FC: 1,04 fold
  GPX1 FC: 0,62 fold
  GPX4 FC: 1,20 fold
  IFNAR1 FC: 0,92 fold
  IFNAR2 FC: 0,99 fold
  IFNGR1 FC: 0,64 fold
  IFNGR2 FC: 0,76 fold
  IL1B FC: 0,88 fold
  IRF3 FC: 1,03 fold
  LAMB1 FC: 4,94 fold
  LAMB4 FC: 3,01 fold
  MMP8 FC: 0,94 fold
  MMP9 FC: 1,03 fold
  MMP12 FC: 0,53 fold
  NLRP3 FC: 0,79 fold
  NOD2 FC: 0,38 fold
  NOXA1 FC: 0,50 fold
  SOCS1 FC: 1,95 fold
  SOCS3 FC: 2,13 fold
  SOD1 FC: 1,35 fold
  SOD2 FC: 0,68 fold
  STAT1 FC: 0,77 fold
  TBK1 FC: 1,01 fold
  TLR4 FC: 1,04 fold
  TNFRSF1B FC: 1,14 fold
  TRAP1 FC: 0,86 fold
  cGAS FC: 1,29 fold
[3]; [12]
  Average FC of upregulated Nrf2-dependent genes: 2.5 fold
  number of upregulated genes (FC >2.0, p-adj <0.05): 175 genes
[3]; [13]
  GCLM fold change vs vehicle: 3.0 fold
  GSR fold change vs vehicle: 2.0 fold
  HMOX1 fold change vs vehicle: 2.4 fold
  SRXN1 fold change vs vehicle: 2.4 fold
  TXNRD1 fold change vs vehicle: 2.9 fold
[3]; WT, 24 h, 10 µM (footnote * of Figure 7c)
  NQO1 upregulation at 24 h: 1.5 fold
[4]
  ISG15 levels (WB): reduced levels
  total STING levels and STING activation (phosphorylated STING and TBK1) (WB): reduced total STING levels and STING activation
[5]; Homo sapiens, BEAS-2B
  EC50: 60.1 ± 5.7 nM
[5]
  EC50: 60 nM
[6]
  target gene mRNA expression (RT-qPCR): several‐fold increases in target gene mRNA expression
[7]
  IFN signalling (phosphorylated STAT1, IFIT1 protein levels) (WB): did not affect IFN signalling
[8]
  number of up- or downregulated genes in Nrf2 KO cells: 266 genes
[9]; HaCaT, 10 µM
  protein levels of Nrf2-regulated genes by WB: strong bands in WB for all tested proteins
[9]; HaCaT, 10, 3, 1 µM
  relative cell potency among the six compounds (WB): most potent
[10]
  cell viability: did not reduce cell viability
